Experimental findings from ChEMBL document CHEMBL1201862, “PubChem BioAssay data set” (2004) are described below.

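Exposure lasted 48 hours, with cells grown in 96-well plates and compounds tested at five concentrations. GI50 marks 50% less growth.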 The source made the active and inactive calls. No stated cut-off is given here; in the data, active = GI50 up to about 1.1 µM and inactive = higher.

Test systems include MOLT-4; TK-10; NCI-H226; SR; MDA-MB-231; HT-29; LOX IMVI; CCRF-CEM; NCI-H23; UACC-257; NCI-H460; SNB-19; OVCAR-3; SK-MEL-2; HOP-92; HCT-116; MCF7; MDA-N; SN12C.
Holding throughout (assay): growth of human tumour cells (NCI), 48 h

Regarding `C=C1C(=O)O[C@H]2C/C(C)=C/CC/C(C)=C/CC[C@@](C)(O)[C@@H](I)C[C@@H]12`, the GI50 with MOLT-4 was 2.37 µM (inactive); with TK-10, 11.5 µM (inactive); in the test on NCI-H226 it was 3.42 µM (inactive); in the test on SR, 2.67 µM (inactive); in the test with MDA-MB-231 it was 12.8 µM (inactive); in the test with HT-29, 6.52 µM (inactive). The GI50 was 0.234 µM (active) in the test on LOX IMVI; 1.49 µM (inactive) in the test on CCRF-CEM; 0.0501 µM (active) in the test on NCI-H23; 12.4 µM (inactive) with UACC-257; 13.2 µM (inactive) in the test with NCI-H460; 15 µM (inactive) with SNB-19. The GI50 in the test with OVCAR-3 was 12.3 µM (inactive); in the test with SK-MEL-2 it was 11.7 µM (inactive); in the test on HOP-92, 2.34 µM (inactive); with HCT-116, 4.14 µM (inactive); with MCF7, 5.57 µM (inactive); in the test on MDA-N, 3.33 µM (inactive). In addition, the GI50 in the test with SN12C is 5.06 µM (inactive).

`CC(C)(NO)/C(=N\O)c1ccco1`: the GI50 in the test on MOLT-4 was 20.1 µM (inactive); in the test on TK-10, > 100 µM (inactive); in the test with NCI-H226, > 100 µM (inactive); in the test on SR it was > 10 µM (inactive); in the test with MDA-MB-231, > 100 µM (inactive); with HT-29, > 100 µM (inactive). Besides, the GI50 in the test with LOX IMVI, with NCI-H23, with UACC-257, in the test with NCI-H460, with SNB-19 and in the test on OVCAR-3 was > 100 µM (inactive) each time. Further, the GI50 in the test on SK-MEL-2, in the test with HOP-92, with HCT-116, with MCF7, with MDA-N and in the test with SN12C was > 100 µM (inactive) throughout.

As to `Fc1cc2nc3n(c2cc1F)C(c1c(F)cccc1F)SC3` (stereo not drawn), the GI50 in the test with MOLT-4 was 27.1 µM (inactive); in the test on TK-10 it was 45.4 µM (inactive); in the test with NCI-H226, 52 µM (inactive); with SR, 30.1 µM (inactive); in the test with MDA-MB-231, 84.5 µM (inactive); in the test with HT-29 it was 34.8 µM (inactive). Besides, the GI50 was 38.8 µM (inactive) in the test on LOX IMVI; 43.9 µM (inactive) with NCI-H23; 46.6 µM (inactive) with UACC-257; 36.8 µM (inactive) with NCI-H460; > 100 µM (inactive) with SNB-19; 34.4 µM (inactive) in the test with OVCAR-3. The GI50 is 38.2 µM (inactive) with SK-MEL-2; 38.8 µM (inactive) in the test on HOP-92; 21.8 µM (inactive) in the test with HCT-116; 31.4 µM (inactive) with MCF7; 35.6 µM (inactive) in the test with MDA-N; 51.9 µM (inactive) in the test on SN12C.

As to `NC(Cc1ccc(O)cn1)C(=O)O` (stereo not drawn), the GI50 with MOLT-4, in the test on TK-10, with NCI-H226, with SR, in the test with MDA-MB-231 and in the test on HT-29 was > 100 µM (inactive) each time. In addition, the GI50 in the test on LOX IMVI, in the test with NCI-H23, with UACC-257, in the test on NCI-H460, in the test on SNB-19 and with OVCAR-3 was > 100 µM (inactive) throughout. Also, the GI50 in the test on HOP-92, in the test on HCT-116, in the test with MCF7, in the test with MDA-N and in the test with SN12C was > 100 µM (inactive) in each case.

For `COC(=O)C(/C(=N/NC(N)=O)C(=O)Nc1ccc(C)cc1)c1nc2ccc([N+](=O)[O-])cc2nc1O` (stereo not drawn), the GI50 in the test with MOLT-4, in the test with TK-10, with NCI-H226, in the test with SR, with MDA-MB-231 and with HT-29 was > 100 µM (inactive) each time. Also, the GI50 in the test with LOX IMVI was 69.3 µM (inactive); in the test with CCRF-CEM, > 10 µM (inactive); with UACC-257 it was > 10 µM (inactive); with NCI-H460, 52.2 µM (inactive); in the test with OVCAR-3, > 100 µM (inactive); in the test on SK-MEL-2 it was > 100 µM (inactive). In addition, the GI50 in the test with HOP-92, in the test with HCT-116, in the test with MCF7, with MDA-N and with SN12C was > 100 µM (inactive) each time.

`COc1cccc2c1CCc1c(-c3ccc(F)cc3)cc(-c3ccc4ccccc4n3)nc1-2`: the GI50 with MOLT-4, with TK-10, in the test on NCI-H226, in the test on SR, in the test with MDA-MB-231 and with HT-29 was > 100 µM (inactive) each time. Further, the GI50 in the test with LOX IMVI, in the test on CCRF-CEM, in the test on NCI-H23, in the test on UACC-257, in the test on NCI-H460 and in the test with SNB-19 was > 100 µM (inactive) in each case. Moreover, the GI50 in the test on OVCAR-3, in the test with SK-MEL-2, in the test on HOP-92, with HCT-116, in the test with MCF7 and in the test with MDA-N was > 100 µM (inactive) throughout.

In the case of `CCOC(=O)NC(Nc1ncn(C(NC(=O)OCC)(C(F)(F)F)C(F)(F)F)n1)(C(F)(F)F)C(F)(F)F`, the GI50 in the test with MOLT-4, in the test on TK-10, in the test with NCI-H226, in the test with SR, in the test with MDA-MB-231 and in the test with HT-29 was > 100 µM (inactive) each time. Moreover, the GI50 in the test with LOX IMVI, in the test with CCRF-CEM, in the test on NCI-H23, in the test with UACC-257, in the test on NCI-H460 and in the test on SNB-19 was > 100 µM (inactive) throughout. In addition, the GI50 with OVCAR-3, in the test with HOP-92, with HCT-116, with MCF7, in the test on MDA-N and with SN12C was > 100 µM (inactive) throughout.

For the compound `Nc1nc(N)nc(-c2cnc3ccccc3c2)n1`, the GI50 in the test on MOLT-4 is 20.7 µM (inactive); in the test on TK-10, 88.9 µM (inactive); in the test with NCI-H226, > 100 µM (inactive); in the test with SR, 37 µM (inactive); in the test on MDA-MB-231 it was 86.7 µM (inactive); in the test with LOX IMVI it was > 100 µM (inactive). Further, the GI50 in the test with CCRF-CEM is 13.4 µM (inactive); with NCI-H23 it was > 100 µM (inactive); with UACC-257, > 100 µM (inactive); in the test with NCI-H460 it was > 100 µM (inactive); in the test with SNB-19 it was > 100 µM (inactive); with OVCAR-3 it was > 100 µM (inactive). The GI50 in the test with SK-MEL-2 was > 100 µM (inactive); in the test on HOP-92, 73.5 µM (inactive); in the test with HCT-116, > 100 µM (inactive); with MCF7, > 100 µM (inactive); in the test with MDA-N, > 100 µM (inactive); in the test on SN12C, > 100 µM (inactive).
